Test results as given in US11952431B2, “Neutrophil-binding peptides” (YISSUM RESEARCH DEVELOPMENT COMPANY OF THE HEBREW …, priority 2020, dated 2024).
Entries after “also recorded” stand apart in the source; their conditions may differ. Each block holds one molecule with its values, some of them ahead of it.

Key:
[1] = tested on: murine neutrophils; test: Phage-display screening of a peptide library on murine neutrophils; format: binding, mouse; settings: prevalence in the final eluate, average of 5 replicates
Experimental: A phage-display screening of a peptide library was conducted, in a similar way to a screen conducted by Mazzucchelli et al. (Blood, 1999, 93(5), 1738-1748). In the present screen, a library of pages displaying 10^12 different peptides on their VIII protein was used to identify peptides that bind to murine neutrophils. The peptides in the library were random sequences of 6-12 amino acids in linear or cyclic form (Ryvkin et al., 2018, Nucleic Acids Research, 2018, Vol. 46, No. 9 e52). The screen was conducted using murine Normal-Density Neutrophils (NDN) for positive selection, whereas monocytes and lymphocytes served for negative selection. Following 3 rounds of positive panning and 2 interlaced rounds of negative panning, the neutrophil affinity selected phages were eluted and sequenced (FIG. 11). The top-ranking enriched peptide sequences and their prevalence in the final eluate (average of 5 replicates) are presented in Table 3.

[2] = tested on: PMA stimulated ROS production in neutrophils; test: PMA induced ROS production after pretreatment with DPI or loaded nanoparticles; format: cell-based; settings: pretreated 3 hrs with 10 ul NP or 1 uM free DPI, then 50 nM PMA
Experimental: PLGA NPs are known to gradually degrade within the cell, releasing any encapsulated payload. Therefore, whether neutrophil degranulation ROS production could be modulated by encapsulating small molecule inhibitors within neutrophil specific NPs (NSNPs) was tested. […] DPI was loaded in the LQI-coated nanoparticles using a single emulsion encapsulation process. Then, neutrophils were pretreated for 3 hrs with 10 ul empty NP (Empty NP), 10 ul DPI-loaded NP (NP+DPI) or 1 uM free DPI. After one wash, neutrophils were stimulated with 50 nM PMA to induce ROS production. Positive control for PMA induction were neutrophils pretreated with vehicle (empty NP). Negative control (Cont.) were untreated neutrophils.

[3] = tested on: neutrophils (HDNs) from 4T1 tumor bearing Balb/C mice
Experimental: 800 μl of 2% FCS/RPMI medium were placed into the 24-well plate, then Millicell® cell culture inserts with a pore size of […] were placed into the wells and allowed to soak for 5 min. HDNs were suspended to a density of 250,000 cells/ml in 2% FCS/RPMI and 200 μl of the cell suspension were placed into the upper chamber of the transwell insert. Migration was stimulated by addition of […] CXCL2 to the bottom chamber of the wells (consider V=800 μl), and peptide was added to HDN in the upper chamber in two different concentrations (3.09 μM or 309 nM considering […]). Assay was stopped after 1.5 hr and inserts were removed with a forceps. Each condition was tested in triplicate. 5 pictures were taken per well at the same coordinates (middle, top, bottom, left, right). Cells per field of view were counted using ImageJ.
The purified HDNs were placed in the upper chamber of a transwell (pore size 5 μm) in 2% FCS/RPMI medium. The lower chamber contained either only 2% FCS/RPMI medium or the chemokine CXCL2 to induce neutrophil migration. […] The assay was stopped after 1.5 h incubation, five pictures of each well were taken, counted and averaged. The experiment was done in triplicates.

[4] = tested on: 4T1 cancer cells co-cultured with HDNs
Experimental: In vitro luciferase assay to monitor the anti-tumor activity of isolated neutrophils (‘Killing Assay’): 5,000 luciferase-labeled 4T1 breast carcinoma cells were seeded in 100 μl OptiMem medium containing 2% heat-inactivated FCS in each well of a white 96-flat-bottom well plate. 24 hours after seeding the tumor cells, 1×10^5 HDNs purified from the circulation of 4T1-tumor-bearing mice were added in 50 μl OptiMem with 2% FCS. The co-culture was incubated overnight. Control wells were incubated in 50 μl medium without neutrophils. Multiple repeats (12 wells) were done of each experimental setting. The supernatant was aspirated and 50 μl of cell culture lysis buffer were added (Promega). The plate was incubated for 15 min on an orbital shaker and then read in the plate-reader. Well-wise 50 μl of in-house prepared luciferase assay solution was injected during the measurement, and chemiluminescence was read for 10 sec per well. % tumor lysis was calculated by the following formula: % tumor lysis=(1−[luminescence of samples with neutrophils]/[luminescence of samples in medium])×100%.
In more details, 5.000 luciferase-labeled 4T1 breast carcinoma cells were cultured for 18 hours. […] The next day, luciferin dependent chemiluminescence was measured and the percentage of killing was calculated compared to control wells that were not cultured with HDNs. […]

[5] = tested on: tumor-associated neutrophils (TANs); settings: TANs from 4T1 tumors, 30 min at 4° C.
Excerpt: After staining, cells were washed and analyzed by flow cytometry.

[6] = target: T1, CD177 (Mus musculus, UniProt Q8R2S8); settings: neutrophil lysate 3 h, mass spectrometry
T1 sequence (Q8R2S8 22-817): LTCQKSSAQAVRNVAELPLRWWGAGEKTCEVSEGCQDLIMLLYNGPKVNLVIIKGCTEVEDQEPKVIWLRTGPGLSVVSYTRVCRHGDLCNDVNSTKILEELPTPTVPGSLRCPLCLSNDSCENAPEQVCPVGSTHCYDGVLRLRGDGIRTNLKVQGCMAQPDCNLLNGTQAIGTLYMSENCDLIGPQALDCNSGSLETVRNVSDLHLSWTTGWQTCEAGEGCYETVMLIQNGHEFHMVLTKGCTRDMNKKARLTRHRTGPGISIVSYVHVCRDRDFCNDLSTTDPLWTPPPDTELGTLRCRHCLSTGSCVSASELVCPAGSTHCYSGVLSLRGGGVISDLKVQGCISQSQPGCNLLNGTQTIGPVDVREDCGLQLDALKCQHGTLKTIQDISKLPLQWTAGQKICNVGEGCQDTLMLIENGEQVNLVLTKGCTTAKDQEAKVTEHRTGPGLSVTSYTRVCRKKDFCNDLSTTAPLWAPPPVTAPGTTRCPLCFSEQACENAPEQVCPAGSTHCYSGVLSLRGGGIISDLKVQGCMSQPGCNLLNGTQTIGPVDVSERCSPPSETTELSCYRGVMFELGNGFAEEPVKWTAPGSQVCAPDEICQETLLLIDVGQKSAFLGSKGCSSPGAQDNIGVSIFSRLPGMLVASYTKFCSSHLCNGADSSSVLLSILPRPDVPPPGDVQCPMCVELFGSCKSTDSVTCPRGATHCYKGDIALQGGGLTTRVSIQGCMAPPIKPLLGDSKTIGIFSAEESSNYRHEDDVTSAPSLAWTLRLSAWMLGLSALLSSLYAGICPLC
Experimental: After washing, the bound proteins were eluted by incubating the beads for 10 min at 95° C. in protein sample buffer containing beta-mercaptoethanol. The gel was stained using silver staining. Lanes of the eluates of peptide- and control-beads were cut out and analyzed by mass spectrometry.

[7] = tested on: murine neutrophils (HDNs from 4T1-tumor bearing mice); test: Titration of binding to purified HDNs, flow cytometry; parameters: species or system mouse
Experimental: Analysis was performed by flow cytometry.

[8] = tested on: circulating neutrophils; test: Ex vivo binding to circulating neutrophils of healthy and tumor bearing mice; parameters: species or system mouse
Experimental: 0.5×10^6 purified HDNs were stained in 100 μl of preincubated 3.3 μg/ml 16-LQI-Cy3 solution for 30 min at 4° C. […] After staining, cells were washed and analyzed by flow cytometry.

[9] = tested on: other WBC; test: LQI tetramer alone or 16-LQI binding to WBCs, flow cytometry; parameters: species or system mouse; settings: WBCs from 4T1-tumor bearing mice, 30 min at 4° C.
Experimental: (§1) After washing, the cells were stained with 50 μl 3.3 μg/ml of Streptavidin-Cy3 (SA-Cy3).
(§2) “Tetramer-Streptavidin Complex”:1 μl of the 309 μM stock solution of the tetrameric peptide was preincubated with 300 μl of 3.3 μg/ml SA-Cy3 for 30 min at RT. 100 μl of LQI tetramer-SA-Cy3 mix was then used to stain 0.5×10^6 cells.
(§3) The cells were washed and analyzed by flow cytometry.

[10] = tested on: neutrophils; test: as above; parameters: species or system mouse; settings: WBCs from 4T1-tumor bearing mice, 30 min at 4° C.
Experimental: as §1, §2, §3

[11] = tested on: neutrophils; test: Confocal imaging of 16-LQI with Gr-1 neutrophils; format: cell-based, mouse
Experimental: FIGS. 2A-I: (2A) Schematic representation of the structure of a tetrameric LQI. […] (2E) Representative histogram showing the percent binding of 16-LQI to each WBC population in healthy Balb/C mice following ex vivo incubation and staining with Streptavidin-Cy3, as analyzed by flow cytometry. *=gating based on light scatter. […] Ly6G^+ population represent HDN and Ly6G− cells are other WBCs. […] (2I) Representative image of confocal microscopy with Gr-1 neutrophils (green) bound by the 16-LQI (red).

[12] = target: T1, CD177; test: STORM imaging of CD177 and 16-LQI on a neutrophil; format: binding; parameters: endogenous in cells; host or cells: murine neutrophils
Excerpt: (§4) (21C-D) Representative dot plots of isolated WBC stained with (21C) Ly6G and CD177 or (21D) CD177 and 16-LQI. […] (21F) Representative STORM imaging of a single neutrophil with staining of CD177 (green) and 16-LQI (red), overlay with brightfield (left) or DAPI staining of nucleus (right). (21G) Quantification of CD177 and 16-LQI interaction for image depicted in (E) using the ImageJ Interaction Factor plugin.

[13] = tested on: circulating CD177+ cells (neutrophils); test: Flow cytometry of WBC stained for CD177 and 16-LQI; format: binding, mouse
Excerpt: as §4

[14] = tested on: neutrophils; test: Doublet analysis of flow cytometry data for crosslinking of neutrophils; format: cell-based, mouse
Experimental: In order to rule out that there is a crosslinking between neutrophils when incubating with the LQI tetramer-SA-complex, flow cytometry data was analyzed to assess if there was an increase in doublet cells after incubation with the LQI tetramer-SA-complex. It is possible to examine the light scatter plots and compare the height signal of a voltage pulse (SSC-H, FSC-H) to the area values (SSC-A, FSC-A; A=Height*Width). If a doublet passes the laser beam in the flow cytometer, the width of the pulse signal (corresponds to time) will increase and therefore the value for the area (SSC-A and FSC-A) will increase. By comparing e.g. SSC-H and SSC-A it is possible to identify doublets because they are outliers in the blot.

[15] = tested on: murine neutrophils (HDNs from 4T1 tumor bearing Balb/C mice); test: Competition assay of LQI phage binding with synthetic LQI peptide constructs; parameters: species or system mouse; settings: peptide 20 min, then 10^10 LQI phages; M13-PE flow cytometry
Experimental: Several LQI monomeric peptide conjugates were synthesized by tagging the N-terminus of LQI peptide with Cy5, biotin or fluorescein (FIG. 1C). Competition assays were then performed in order to evaluate the binding of LQI and its conjugates to murine neutrophils. For the competition assays, 1×10^6 density-gradient purified HDNs from 4T1 tumor bearing Balb/C mice were incubated first with each of the synthetic peptides for 20 min, and later incubated with 10^10 phages presenting the LQI peptide on their surface. Phage binding was detected by flow cytometry with a M13-PE antibody.

[16] = tested on: monocytes or lymphocytes; test: Binding of peptide-presenting phage to WBC of 4T1 tumor bearing mice (anti-M13 PE, flow cytometry); parameters: species or system mouse; settings: phage presenting the peptide
Experimental: (§5) FIGS. 1A-D: Validation of Phage Binding of Highest-Ranking Peptides Sequences Selected on Mouse Neutrophils. […] (SEQ ID NO: 9) peptide to neutrophils (Ly6G+CD11b+, red histogram) and other WBC (Ly6G−CD11b−, blue histogram) was evaluated using anti-M13 PE-labelled antibody and (1A) flow cytometry analysis or (1B) microscopy. (1C) Overview of LQI peptide constructs—the LQI peptide sequence on the phage is inserted within the protein VIII coat protein of the phage (LQI peptide in orange) and neighboring amino acid residues are depicted (recombinant LQI pVIII). An unlabeled, Cy5-labeled, biotin-labeled and the LQI peptide construct including neighboring amino acids from coat protein VIII as well as a glycine linker and fluorescein, were generated and tested for binding. (1D) Competition assay of LQI phage binding and LQI peptide constructs. Neutrophils were incubated with the LQI-presenting phage (black line) alone or with the LQI-presenting phage and different LQI peptide constructs at the same time (blue line). Phage binding to neutrophils was quantified using anti-M13-PE antibody (only M13-PE=dotted line).
(§6) The peptide having the best binding obtained in the screening was the peptide LQI, consisting of the amino acid sequence […] (SEQ ID NO: 9).

[17] = tested on: neutrophils (Ly6G+CD11b+); test: as above; parameters: species or system mouse; settings: phage presenting the peptide
Experimental: as §5, §6

[18] = target: T2, murine CD177 (Mus musculus, UniProt Q8R2S8); test: Binding to HEK293T cells ectopically expressing CD177; settings: control versus CD177-overexpressing cells
T2 construct: expressed in transfected cells; host or cells: HEK293T
T2 sequence (Q8R2S8 22-817): T1 sequence (Q8R2S8 22-817)

Molecule: TETSLRIVSTNP
Prevalence (%) [1]: 4.1%

Molecule: c1ccc2c(c1)[I+]c1ccccc1-2 [DPI, diphenyleneiodonium chloride]
effect on PMA stimulated ROS production [2]: efficiently blocked; also recorded: completely blocked ROS production

Molecule: (LQIQSWSSSP (SEQ ID NO: 9) Doa-Doa-C)4-(Mpa)-4-Lys2-Lys-beta-Ala-Lys(Biotin)-beta-Ala-OH [LQI tetramer]
effect on neutrophil migration ([3]; 3.09 μM and 309 nM in upper chamber, CXCL2 in lower chamber, 1.5 h): no significant effect on neutrophil migration | chemoattractant activity ([3]; migration towards media containing LQI-tetramer): does not itself act as a chemoattractant | effect on the ability of HDNs to kill cancer cells [4]: does not affect the ability of HDNs to kill cancer cells | binding efficiency to TANs [5]: 98% | peptide/control ratio of CD177 in pulldown [6]: 7.89 | Kd ([7]; purified HDNs, flow cytometry): 3.3 µM | binding to the different types of neutrophils ([8]; summary FIG. 2H): very high efficiency | binding to other WBC [9]: ~50% | binding of neutrophils [10]: ~100%

Molecule: STMTILGTGS
Prevalence (%) [1]: 10.4%

Molecule: 16-LQI: LQI tetramer-streptavidin (SA) complex, a 16-mer of the LQI-peptide [Peptide 16-LQI]
uptake seen by confocal imaging [11]: engulfed specifically by neutrophils | clusters in which CD177 and 16-LQI signals overlap [12]: > 90% | binding to circulating CD177+ cells [13]: all circulating CD177+ cells (neutrophils) bind | percentage of doublets versus cells stained with only SA-Cy3 [14]: Differences were not detected | affinity for neutrophils relative to LQI-tetramer alone [7]: more than 75 times | specificity to circulating neutrophils (Ly6G+ cells) ([8]; mice bearing 4T1 tumors): strong specificity | binding to circulating neutrophils ([8]; neutrophils isolated from healthy mice, ex vivo): 87% | binding to other WBC [9]: ~10% | binding of neutrophils [10]: 100%

Molecule: LSIVSGSALNHL
Prevalence (%) [1]: 2.9%

Molecule: LTLVSERPMI
Prevalence (%) [1]: 1.5%

binding of phage to monocytes or lymphocytes [16]: no detectable binding
Molecule: LQIQSWSSSP
Prevalence (%) [1]: 28.4% | competition with LQI phage binding to neutrophils [15]: able to compete with the phage binding to neutrophils | binding of phage to neutrophils [17]: 95% | binding to HEK293T cells [18]: binds only to HEK293T cells ectopically expressing the murine CD177
